What was measured:
STAT5 [1] = biological target: T1, STAT5 (Homo sapiens, UniProt P42229+P51692); set-up: endogenous in cells; host or cells: K562 nuclear extract; settings: K562 nuclear extract; cited from earlier work
T1 sequence (P42229 1-794): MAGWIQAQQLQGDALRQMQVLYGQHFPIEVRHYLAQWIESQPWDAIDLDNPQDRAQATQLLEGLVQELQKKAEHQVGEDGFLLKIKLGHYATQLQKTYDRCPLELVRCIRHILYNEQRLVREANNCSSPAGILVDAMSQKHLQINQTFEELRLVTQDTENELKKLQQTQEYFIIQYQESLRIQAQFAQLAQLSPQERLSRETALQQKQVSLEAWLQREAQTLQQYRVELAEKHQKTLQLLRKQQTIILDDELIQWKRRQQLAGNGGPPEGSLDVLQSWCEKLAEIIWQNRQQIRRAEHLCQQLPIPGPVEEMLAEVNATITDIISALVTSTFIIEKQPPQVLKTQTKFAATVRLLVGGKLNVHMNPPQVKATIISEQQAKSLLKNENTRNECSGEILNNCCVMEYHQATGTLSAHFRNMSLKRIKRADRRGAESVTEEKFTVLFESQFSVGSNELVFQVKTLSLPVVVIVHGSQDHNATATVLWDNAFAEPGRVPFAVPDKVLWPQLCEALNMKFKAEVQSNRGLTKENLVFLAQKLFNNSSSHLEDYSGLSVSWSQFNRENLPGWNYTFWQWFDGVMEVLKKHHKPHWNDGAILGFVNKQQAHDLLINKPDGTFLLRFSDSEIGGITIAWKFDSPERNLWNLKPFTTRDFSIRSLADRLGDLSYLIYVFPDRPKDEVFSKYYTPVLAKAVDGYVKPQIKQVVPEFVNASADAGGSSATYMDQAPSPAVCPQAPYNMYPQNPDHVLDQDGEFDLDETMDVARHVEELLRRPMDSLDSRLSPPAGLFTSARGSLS
T1 sequence (P51692 1-787): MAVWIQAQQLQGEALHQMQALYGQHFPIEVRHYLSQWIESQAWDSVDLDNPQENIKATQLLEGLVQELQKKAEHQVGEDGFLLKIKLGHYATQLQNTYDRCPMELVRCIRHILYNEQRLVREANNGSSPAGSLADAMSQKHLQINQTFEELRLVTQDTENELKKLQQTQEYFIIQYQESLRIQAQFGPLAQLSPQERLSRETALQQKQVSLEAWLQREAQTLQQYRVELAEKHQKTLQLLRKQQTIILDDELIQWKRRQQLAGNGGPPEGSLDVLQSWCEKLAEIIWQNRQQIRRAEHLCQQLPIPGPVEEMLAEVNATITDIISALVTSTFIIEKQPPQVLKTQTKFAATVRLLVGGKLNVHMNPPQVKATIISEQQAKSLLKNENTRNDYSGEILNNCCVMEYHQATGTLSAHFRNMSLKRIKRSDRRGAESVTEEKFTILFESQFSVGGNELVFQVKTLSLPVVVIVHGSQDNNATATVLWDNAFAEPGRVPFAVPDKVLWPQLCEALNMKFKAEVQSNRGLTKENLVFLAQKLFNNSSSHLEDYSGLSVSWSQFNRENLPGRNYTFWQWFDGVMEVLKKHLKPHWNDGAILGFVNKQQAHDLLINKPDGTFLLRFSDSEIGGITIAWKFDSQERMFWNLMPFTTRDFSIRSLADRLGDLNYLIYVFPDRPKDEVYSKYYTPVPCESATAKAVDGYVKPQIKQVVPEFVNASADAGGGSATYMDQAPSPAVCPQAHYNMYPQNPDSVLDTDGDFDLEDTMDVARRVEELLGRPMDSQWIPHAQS

SH2 domain of Lck = SH2 domain of Lck (Homo sapiens, UniProt P06239); settings: read-out: IC50 towards the SH2 domain of Lck; cited from earlier work
STAT5 [2] = biological target: T1, STAT5; set-up: endogenous in cells; settings: Daudi cells; cited from earlier work
STAT5 [3] = biological target: T1, STAT5; set-up: in Bcr-Abl+ K562 and KU812 cultures; endogenous in cells; host or cells: K562 and KU812 cells; settings: 5 to 10 μM for 3 h; Bcr-Abl+ K562 and KU812 cultures; cited from earlier work
[4] = test system: adjuvant-induced arthritis (AIA) rat model; assay: AIA rat model, paw volume and clinical scores; format: in vivo, rats
Experimental: FIG. 3 is a graph illustrating the treatment scheme in an adjuvant-induced arthritis (AIA) rat model. In the prophylactic group, treatment starts from day 0 and administered every other day. In the therapeutic group, treatment starts from day 13 and was administered every other day.
Three groups (10 rats in each group) of female rats (age 8 weeks) were subject to AIA model induction and then to different treatment schemes. Specifically, 100 ug mBSA mixed with CFA was injected s.c. to flank near tail, and one dose of B. pertusiss was injected i.p. the next day to boost the immune reaction. The first of the three groups of rats were treated with DMSO (Vehicle). The second of the three groups of rats were treated with pimozide (Sigma-Aldrich) 10 mg/kg of body weight (same unit are used throughout this application) in 30% PEG300 solution via intraperitoneal injection with collagen injection starting from day 7 (Therapeutic). The last of the three groups of rats were treated with pimozide (Sigma-Aldrich) 10 mg/kg in 30% PEG300 solution via intraperitoneal injection either with collagen injection starting from day 0. As a control, a fourth group of female rats (5 rats) were spared the AIA model induction and were not treated. The inventors collected data of the weight, paw volume, and clinical scores every three days and performed statistic analysis.
The clinical scores were derived according to the scheme in Table 1.
The method used in the statistic analysis was Student's t test, unpaired, two-tailed analysis.

STAT3 = STAT3 (Homo sapiens, UniProt P40763); set-up: IFNα-stimulated STAT1 phosphorylation or LIF-stimulated STAT3 phosphorylation in K562 cells; endogenous in cells; host or cells: K562 cells; settings: K562 cells, 10 μM 1 h pretreatment; cited from earlier work
[5] = test system: Chronic Myeloid Leukemia (CML) cell lines; settings: cited from earlier work
[6] = Prophylactic group, 10 mg/kg i.p. from day 0, starting from day 13
[7] = Therapeutic group, 10 mg/kg i.p., starting from day 17

Sequence of STAT3 (P40763 whole entry): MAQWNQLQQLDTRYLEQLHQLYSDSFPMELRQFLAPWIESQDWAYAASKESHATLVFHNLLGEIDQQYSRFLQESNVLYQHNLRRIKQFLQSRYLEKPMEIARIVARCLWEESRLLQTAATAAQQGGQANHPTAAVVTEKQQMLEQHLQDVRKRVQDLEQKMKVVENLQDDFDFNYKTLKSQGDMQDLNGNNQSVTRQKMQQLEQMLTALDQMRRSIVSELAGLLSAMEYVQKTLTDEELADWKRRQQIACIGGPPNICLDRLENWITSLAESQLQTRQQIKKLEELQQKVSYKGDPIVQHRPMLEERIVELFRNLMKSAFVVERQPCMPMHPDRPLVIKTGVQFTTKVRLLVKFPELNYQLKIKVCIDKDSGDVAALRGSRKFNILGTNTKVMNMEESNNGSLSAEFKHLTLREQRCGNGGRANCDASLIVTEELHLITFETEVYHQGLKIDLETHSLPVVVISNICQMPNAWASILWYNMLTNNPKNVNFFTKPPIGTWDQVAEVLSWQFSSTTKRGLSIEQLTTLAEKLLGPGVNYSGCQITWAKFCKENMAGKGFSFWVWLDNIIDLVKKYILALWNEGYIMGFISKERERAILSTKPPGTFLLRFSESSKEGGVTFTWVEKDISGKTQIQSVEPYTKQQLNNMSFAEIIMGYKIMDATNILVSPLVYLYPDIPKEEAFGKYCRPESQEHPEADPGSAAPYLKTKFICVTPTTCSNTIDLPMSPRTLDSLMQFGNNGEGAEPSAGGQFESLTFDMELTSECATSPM
Sequence of SH2 domain of Lck (P06239 120-226 limits assumed): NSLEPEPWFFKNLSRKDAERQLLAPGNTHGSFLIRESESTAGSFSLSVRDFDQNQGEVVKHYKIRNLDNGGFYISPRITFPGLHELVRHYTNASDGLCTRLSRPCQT

Structure (SMILES) | STAT5/STAT5 DNA binding activity (STAT5 [1]) | IC50 (SH2 domain of Lck) | IFN-α-stimulated STAT5 tyrosine phosphorylation (STAT5 [2]) | constitutive STAT5 Tyr694 phosphorylation (STAT5 [3]) | clinical score vs Vehicle group [4, 6] | paw volume vs Vehicle group [4, 6] | clinical score vs Vehicle group [4, 7] | paw volume vs Vehicle group [4, 7] | LIF-stimulated STAT3 phosphorylation (STAT3) | cell cycle arrest and apoptosis [5]
O=C(N/N=C/c1coc2ccccc2c1=O)c1cccnc1 [nicotinohydrazide, N′-((4-Oxo-4H-chromen-3-yl)methylene)nicotinohydrazide] | blocks | > 500 µM | inhibit | – | – | – | – | – | – | –
O=c1[nH]c2ccccc2n1C1CCN(CCCC(c2ccc(F)cc2)c2ccc(F)cc2)CC1 [pimozide, 1-[1-[4,4-bis(4-fluorophenyl)butyl]-4-piperidinyl]-1,3-dihydro-2H-benzimidazole-2-one] | – | – | – | inhibits | significantly decreased | significantly decreased | significantly decreased | significantly decreased | little activity | induces
